Experimental data from patent publication US11779572B1, “Methods of treating gastrointestinal stromal tumors” (Deciphera Pharmaceuticals, LLC, priority 2022, dated 2023).
≈ marks a conversion by molar mass, not a printed value. Where two headings read alike, the source gives them in different places.

How the values were obtained:
GIST = assay: Clinical study in second-line through fourth-line plus GIST, ≥100 mg daily (Example 2): efficacy; assay type: in vivo, human
Method: Results. Data from 178 GIST patients receiving ripretinib at doses of ≥100 mg daily are noted in Table 2. The table includes investigator-assessed objective response rate (ORR) by best response, disease control rate (DCR) and median progression free survival (mPFS), all of which were determined by Response Evaluation Criteria in Solid Tumors (RECIST) version 1.1.
In Table 2, (1) indicates overall number of patients (n=178) remains the same as prior data presented at ESMO 2018; based on additional data cleaning, one patient from each of 2nd line and 4th/≥4th line were reclassified as 3rd line patients; (2) refers to median treatment durations were: 2nd line=44 weeks, 3rd line=48 weeks, 4th line=46 weeks and ≥4th line=29 weeks; (3) refers to including 60 patients who elected for intra-patient dose escalation from 150 mg QD to 150 mg BID; and (4) refers to the number of patients including 60 patients from 4th line.

[1] = Unbound fraction / plasma protein binding; assay type: in vitro ADME, human; details: human, plasma, oral, 50 mg, healthy participants and participants with hepatic impairment; clinical samples; read-out: mean unbound fraction fu %
Source text: (§1) Both ripretinib and DP-5439 display high binding to plasma proteins in vitro; therefore, clinical samples were collected to investigate the effect of HI on the unbound fraction (fu) % for both analytes. Distributions of individual mean fu % for both ripretinib and DP-5439 show high variability between participants. The ripretinib mean fu % was ≤0.6% in healthy participants and in participants with hepatic impairment. The DP-5439 fu % was ≤0.5% in healthy participants and 0.2% to 1.4% in participants with hepatic impairment. No clear trend could be established between unbound ripretinib and DP-5439 PK parameters and the degrees of HI.

plasma proteins = assay: Unbound fraction / plasma protein binding; assay type: in vitro ADME, human
Source text: as §1

Solubility in buffers = assay type: physicochemical
CYP2C8 = target: T1, CYP2C8 (Homo sapiens, UniProt P10632); assay: Contribution of CYP enzymes to metabolism, in vitro data; assay type: in vitro ADME; details: base model, based on in vitro data
T1 sequence (P10632 1-490): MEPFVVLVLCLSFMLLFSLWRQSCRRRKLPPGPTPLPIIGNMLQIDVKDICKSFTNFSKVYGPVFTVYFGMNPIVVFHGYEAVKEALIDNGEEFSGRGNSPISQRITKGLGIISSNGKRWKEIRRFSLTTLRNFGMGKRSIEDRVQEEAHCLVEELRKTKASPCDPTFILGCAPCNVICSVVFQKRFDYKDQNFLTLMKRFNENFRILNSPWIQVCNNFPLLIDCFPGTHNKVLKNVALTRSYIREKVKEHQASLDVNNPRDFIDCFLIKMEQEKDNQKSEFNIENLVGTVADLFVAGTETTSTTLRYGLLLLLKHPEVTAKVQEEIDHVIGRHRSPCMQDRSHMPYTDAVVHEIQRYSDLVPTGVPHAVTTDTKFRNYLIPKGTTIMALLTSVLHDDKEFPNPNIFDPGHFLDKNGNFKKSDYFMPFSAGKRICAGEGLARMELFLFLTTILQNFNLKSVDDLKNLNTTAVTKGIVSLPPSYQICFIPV
Source text: A PBPK model that included a mechanistic absorption model was developed.

[2] = tested on: patients with advanced GIST; assay: Example 1 study: patient reported outcomes (EQ-5D-5L VAS, EORTC QLQ-C30); assay type: in vivo, human; details: 150 mg QD
Method: Patient reported outcomes were assessed by EQ-5D-5L, which provides a visual analogue scale (VAS), and EORTC QLQ-C30, which provides physical function and role function scales. The EQ-5D-5L VAS (or EQ-VAS) records the respondent's overall current health on a vertical visual analogue scale and provides a quantitative measure of the patient's perception of overall health. These patient outcomes were reported across 28-day cycles of receiving 150 mg QD ripretinib or placebo.
The EORTC QLQ-C30 is an assessment of function and symptoms of therapy by cancer patient, and is not specific to any cancer. The EORTC QLQ-C30 is a 30-question plus one global health status, including 5 functional scales, 3 symptom scales and a global health status.

[3] = Observed clinical PK after single and multiple doses; assay type: in vivo; details: human, plasma, oral; SD administration, healthy participants
Method: CYP3A4 inactivation parameters and induction parameters were subsequently incorporated in the model to assess the net effect on drug clearance at steady state. Due to the uncertainty in the in vitro CYP3A4 MBI data and CYP3A4 induction data, a series of sensitivity analysis was performed. […] Therefore, the in vitro CYP3A4 interaction data were used in the final model. The simulated profiles of ripretinib and DP-5439 in virtual participants were compared to the clinical data. […] The predicted mean AUC0-12 values for DP-5439 on Day 1 were within 2-fold (majority within 1.5-fold) of the observed values, except for the 250-mg QD dose. The mean AUC0-12 and Cmax values for DP-5439 on Day 15 were under-predicted. […] For example, the reported AUCs for ripretinib and DP-5439 at the 150-mg QD dose level were 1.66 and 5.29, respectively. […] The mechanisms for the accumulation of DP-5439 were unclear.

[4] = Food effect (high-fat meal) on exposure; assay type: in vivo, human; details: 150 mg dose of ripretinib
Method: The effect of a high-fat breakfast on ripretinib and Compound A exposure was evaluated. A high fat meal consisted of approximately 150, 250, and 500-600 calories from protein, carbohydrate, and fat, respectively. […] The food effect is not considered to be clinically significant based on exposure-response analysis. Therefore, ripretinib may be taken with or without food at approximately same time each day.

SMILES: CCn1c(=O)c(-c2cc(NC(=O)Nc3ccccc3)c(F)cc2Br)cc2cnc(NC)cc21 [ripretinib]
- Disease Control Rate at 3 Months (GIST; Fourth-Line (n = 60)): 73%
- Median Progression Free Survival (mPFS) (GIST; Fourth-Line (n = 60)): 30 weeks
- Objective Response Rate by Best Response, includes unconfirmed (GIST; Fourth-Line (n = 60)): 15%
- Objective Response Rate, confirmed only (GIST; Fourth-Line (n = 60)): 8%
- Disease Control Rate at 3 Months (GIST; Second-Line (n = 37)): 81%
- Median Progression Free Survival (mPFS) (GIST; Second-Line (n = 37)): 42 weeks
- Objective Response Rate, confirmed only (GIST; Second-Line (n = 37)): 22%
- Objective Response Rate by Best Response, includes unconfirmed (GIST; Second-Line (n = 37), ≥100 mg daily, RECIST 1.1, investigator): 30%
- Disease Control Rate at 3 Months (GIST; Third-Line (n = 31)): 80%
- Median Progression Free Survival (mPFS) (GIST; Third-Line (n = 31)): 40 weeks
- Objective Response Rate by Best Response, includes unconfirmed (GIST; Third-Line (n = 31)): 23%
- Objective Response Rate, confirmed only (GIST; Third-Line (n = 31)): 13%
- Disease Control Rate at 3 Months (GIST; ≥Fourth-Line (n = 110)): 66%
- Median Progression Free Survival (mPFS) (GIST; ≥Fourth-Line (n = 110)): 24 weeks
- Objective Response Rate by Best Response, includes unconfirmed (GIST; ≥Fourth-Line (n = 110)): 11%
- Objective Response Rate, confirmed only (GIST; ≥Fourth-Line (n = 110)): 7%
- fraction unbound [1]: ≤ 0.006
- binding to plasma proteins (plasma proteins; in vitro): high binding
- impact of HI (albumin, ALP, ALT, AST, bilirubin changes) on unbound exposure (plasma proteins; visual assessment): did not appear to have an impact
- solubility (Solubility in buffers): pH-dependent solubility
- solubility (Solubility in buffers; fassgf or other biorelevant, intestinal buffer (pH 6.5), read-out: solubility): 0.123 mg/mL (≈ 241 µM)
- solubility (Solubility in buffers; simulated gastric fluid, gastric buffer (pH 2.0), read-out: solubility): 0.178 mg/mL (≈ 349 µM)
- share of metabolism assigned to CYP2C8 (CYP2C8): 23%
- EORTC QLQ-C30 physical function score, average improvement from baseline ([2]; baseline to C2D1): 1.6
- EORTC QLQ-C30 role function score, average improvement from baseline ([2]; baseline to C2D1): 3.5
- EQ-VAS score, average improvement from baseline ([2]; baseline to Cycle 2, Day 1): 3.7
- EORTC QLQ-C30 Question C29 (overall health) score improvement ([2]; scale 1 to 7): 0.20
- EORTC QLQ-C30 Question C30 (overall quality of life) score improvement ([2]; scale 1 to 7): 0.28
- half-life [3]: ~14 h
- AUC0-24h higher with a high-fat meal [4]: 30%
- Cmax higher with a high-fat meal [4]: 22%
